Drawing on PubChem BioAssay (NCI), this text covers TGI and GI50 for 20 compounds.

“And” between values parts separate entries of the source, which are not always exact repeats. Identical values can stand only once.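 Results reflect a 48-hour exposure of cells in 96-well plates to compound at five concentrations. Abbreviation: GI50, concentration required for 50% inhibition of growth. TGI: concentration producing complete growth inhibition.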 Bounds are passed on as bounds.

Test systems include SF-539 CNS; DU-145 prostate; MCF7 breast; SK-MEL-2 melanoma; LOX IMVI melanoma; HCC-2998 colon; PC-3 prostate; OVCAR-8 ovarian; OVCAR-4 ovarian; OVCAR-5 ovarian.
Holding throughout (experiment): NCI anticancer screen, dose series, 48 h

As for `O=C(Nc1ccc(N2C(=O)CSC2c2ccccc2O)cc1)c1ccc(N2C(=O)CSC2c2ccccc2O)cc1` (stereo unspecified), the TGI in the experiment with SF-539 CNS, in the experiment on DU-145 prostate, with MCF7 breast, with SK-MEL-2 melanoma, with LOX IMVI melanoma and with HCC-2998 colon was over 100 µM each time. Further, the TGI in the experiment with PC-3 prostate, in the experiment with OVCAR-8 ovarian, in the experiment on OVCAR-4 ovarian and with OVCAR-5 ovarian was over 100 µM in each case.

Regarding `O=c1[nH]c(Nc2ccccc2)nc2c1ncn2CC(O)CSCCO` (stereo unspecified), the TGI in the experiment with SF-539 CNS, in the experiment with DU-145 prostate, in the experiment on MCF7 breast, with SK-MEL-2 melanoma, in the experiment on LOX IMVI melanoma and in the experiment on HCC-2998 colon was over 100 µM in each case. Besides, the TGI with PC-3 prostate, in the experiment on OVCAR-8 ovarian, in the experiment with OVCAR-4 ovarian and in the experiment on OVCAR-5 ovarian was over 100 µM throughout.

For the compound `Cn1c(=O)c2[nH]c(N/N=N/c3nncs3)nc2n(C)c1=O`, the TGI in the experiment on SF-539 CNS, in the experiment with DU-145 prostate, in the experiment with MCF7 breast, in the experiment on SK-MEL-2 melanoma, with LOX IMVI melanoma and with HCC-2998 colon was over 100 µM each time. Also, the TGI in the experiment with PC-3 prostate, with OVCAR-8 ovarian, in the experiment on OVCAR-4 ovarian and with OVCAR-5 ovarian was over 100 µM each time.

Regarding `COC(=O)Cc1cc(O)c2c(c1O)C(=O)c1ccccc1C2=O`, the TGI in the experiment with SF-539 CNS was over 100 µM; in the experiment with DU-145 prostate it was over 100 µM; in the experiment on MCF7 breast, over 56.3 µM; in the experiment with SK-MEL-2 melanoma, over 100 µM; in the experiment on LOX IMVI melanoma it was over 100 µM; in the experiment with HCC-2998 colon, over 100 µM. Further, the TGI in the experiment with PC-3 prostate, in the experiment on OVCAR-8 ovarian, in the experiment on OVCAR-4 ovarian and in the experiment with OVCAR-5 ovarian was over 100 µM each time.

As to `CC1CC[C@@]2(OC1)OC1C[C@H]3[C@@H]4CC=C5CC(OC6OC(CO)C(OC7OC(CO)C(O)C(OC8OCC(O)C(O)C8O)C7OC7OC(CO)C(OC8OC(C)C(OC9OC(C)C(O)C(O)C9O)C(O)C8O)C(O)C7O)C(O)C6O)CCC5(C)[C@H]4CCC3(C)C1[C@@H]2C` (stereo partly specified), the TGI in the experiment on SF-539 CNS was 12.7 µM; in the experiment on DU-145 prostate, 15.9 µM; in the experiment with MCF7 breast, 26.8 µM; in the experiment on SK-MEL-2 melanoma, 13.5 µM; with LOX IMVI melanoma it was 17.3 µM; in the experiment with HCC-2998 colon, 14.1 µM. Further, the TGI with PC-3 prostate worked out at 11.7 µM; in the experiment with OVCAR-8 ovarian, 19.4 µM; in the experiment with OVCAR-4 ovarian it was 12.8 µM; with OVCAR-5 ovarian, 14.3 µM.

On to `COC(=O)[C@H]1C=NN[C@@H]1C(=O)N1[C@H]2CC3CC[C@@]2(CS1(=O)=O)C3(C)C`, for which the TGI with SF-539 CNS, in the experiment with DU-145 prostate, with MCF7 breast, in the experiment on SK-MEL-2 melanoma, in the experiment with LOX IMVI melanoma and in the experiment on HCC-2998 colon was over 100 µM throughout. The TGI with PC-3 prostate, with OVCAR-8 ovarian, in the experiment on OVCAR-4 ovarian and with OVCAR-5 ovarian was over 100 µM in each case.

With `COc1ccc([C@H]2[C@H]3COC(=O)[C@H]3C(C#N)=C3Sc4ccccc4N32)cc1`, the TGI is over 100 µM in the experiment on SF-539 CNS; 69.7 µM in the experiment on DU-145 prostate; over 100 µM in the experiment on MCF7 breast; 56.7 µM in the experiment with SK-MEL-2 melanoma; over 62.9 µM with LOX IMVI melanoma; over 100 µM in the experiment on HCC-2998 colon. Further, the TGI with PC-3 prostate, in the experiment on OVCAR-8 ovarian, in the experiment with OVCAR-4 ovarian and with OVCAR-5 ovarian was over 100 µM throughout.

With `O=C(O)CN(CC(=O)O)C1CCCCC1N1CC(=O)OC(=O)C1` (stereo unspecified), the TGI with SF-539 CNS, with DU-145 prostate, in the experiment with MCF7 breast, in the experiment with SK-MEL-2 melanoma, in the experiment on LOX IMVI melanoma and with HCC-2998 colon was over 100 µM each time. In addition, the TGI with PC-3 prostate, in the experiment with OVCAR-8 ovarian, with OVCAR-4 ovarian and with OVCAR-5 ovarian was over 100 µM in each case.

Turning to `Cc1cc(C)nc(NS(=O)(=O)c2ccc(NC(=O)c3c4ccccc4nc4ccccc34)cc2)n1`, the TGI in the experiment on SF-539 CNS, with DU-145 prostate, in the experiment with MCF7 breast, in the experiment on SK-MEL-2 melanoma, in the experiment with LOX IMVI melanoma and with HCC-2998 colon was over 100 µM throughout. Further, the TGI in the experiment on PC-3 prostate, in the experiment on OVCAR-8 ovarian, in the experiment on OVCAR-4 ovarian and with OVCAR-5 ovarian was over 100 µM in each case.

Turning to `O=[N+]([O-])c1ccccc1OCCOc1ccccc1[N+](=O)[O-]`, the TGI in the experiment with SF-539 CNS, in the experiment with DU-145 prostate, with MCF7 breast, in the experiment on SK-MEL-2 melanoma, in the experiment on LOX IMVI melanoma and in the experiment with HCC-2998 colon was over 100 µM in each case. In addition, the TGI with PC-3 prostate, in the experiment with OVCAR-8 ovarian, in the experiment on OVCAR-4 ovarian and in the experiment on OVCAR-5 ovarian was over 100 µM each time.

Turning to `CC(=O)Nc1ccc2c(C)c3c(nc2n1)[nH]c1ccccc13`, the TGI in the experiment with SF-539 CNS is over 100 µM; in the experiment with DU-145 prostate, over 100 µM; with MCF7 breast it was over 100 µM; in the experiment on SK-MEL-2 melanoma, 55.5 µM; in the experiment with LOX IMVI melanoma it was 37.9 µM; in the experiment with HCC-2998 colon it was 76.1 µM. The TGI with PC-3 prostate is over 100 µM; in the experiment with OVCAR-8 ovarian, 87.6 µM; in the experiment on OVCAR-4 ovarian, over 100 µM; with OVCAR-5 ovarian, over 100 µM.

As for `N#Cc1c(-c2ccc(Cl)cc2)c2c(nn3c4ccc5ccccc5c4nnc23)[nH]c1=O`, the TGI in the experiment with SF-539 CNS was 3.96 µM; with DU-145 prostate, 4.61 µM; in the experiment with MCF7 breast, 14.8 µM; in the experiment on SK-MEL-2 melanoma, 5.77 µM; in the experiment with LOX IMVI melanoma, 4.18 µM; with HCC-2998 colon, 8.87 µM. Also, the TGI was found to be 7 µM in the experiment on PC-3 prostate, 6.98 µM in the experiment on OVCAR-8 ovarian, 21.6 µM in the experiment on OVCAR-4 ovarian and 23.4 µM with OVCAR-5 ovarian.

`N#CN1C2CCC1CC(=O)C2`: the TGI in the experiment on SF-539 CNS, with DU-145 prostate, in the experiment on MCF7 breast, in the experiment with SK-MEL-2 melanoma, in the experiment with LOX IMVI melanoma and in the experiment with HCC-2998 colon was over 100 µM each time. In addition, the TGI in the experiment on PC-3 prostate, in the experiment on OVCAR-8 ovarian, with OVCAR-4 ovarian and with OVCAR-5 ovarian was over 100 µM each time.

Regarding `COc1ccc2c(c1)C(=O)CC1c3cnccc3C(=O)N21` (stereo unspecified), the TGI in the experiment on SF-539 CNS, in the experiment on DU-145 prostate, with MCF7 breast, in the experiment with SK-MEL-2 melanoma, with LOX IMVI melanoma and in the experiment with HCC-2998 colon was over 100 µM throughout. Further, the TGI in the experiment with PC-3 prostate, in the experiment on OVCAR-8 ovarian, in the experiment on OVCAR-4 ovarian and in the experiment with OVCAR-5 ovarian was over 100 µM in each case.

Consider `CC(C)(C)c1ccc(OCCOc2ccc(C(C)(C)C)cc2N)c(N)c1`, for which the TGI in the experiment with SF-539 CNS, in the experiment with DU-145 prostate, with MCF7 breast, in the experiment on SK-MEL-2 melanoma, with LOX IMVI melanoma and in the experiment with HCC-2998 colon was over 100 µM throughout. Further, the TGI in the experiment with PC-3 prostate, in the experiment on OVCAR-8 ovarian, with OVCAR-4 ovarian and in the experiment on OVCAR-5 ovarian was over 100 µM in each case.

In the case of `CC(=O)c1c(-c2cccc3ccccc23)c(C#N)c(=S)n(C2OC(CO)C(O)C(O)C2O)c1C` (stereo unspecified), the GI50 with SF-539 CNS was > 100 µM and 39.6 µM. Besides, the TGI with SF-539 CNS, with DU-145 prostate, with MCF7 breast, in the experiment with SK-MEL-2 melanoma, with LOX IMVI melanoma and in the experiment on HCC-2998 colon was over 100 µM throughout. Moreover, the TGI in the experiment on PC-3 prostate, in the experiment on OVCAR-8 ovarian, with OVCAR-4 ovarian and in the experiment on OVCAR-5 ovarian was over 100 µM each time.

With `CC(C)/C(Cl)=N/OC(=O)Nc1ccc(Br)cc1`, the TGI in the experiment with SF-539 CNS was 29.1 µM; in the experiment with DU-145 prostate, 27.4 µM; in the experiment on MCF7 breast, 24.9 µM; in the experiment with SK-MEL-2 melanoma, 31.5 µM; with LOX IMVI melanoma, 2.85 µM; in the experiment on HCC-2998 colon, 29.4 µM. Moreover, the TGI was 26.7 µM in the experiment with PC-3 prostate, 27.8 µM in the experiment on OVCAR-8 ovarian, 31.8 µM in the experiment on OVCAR-4 ovarian and 28.6 µM in the experiment on OVCAR-5 ovarian.

Turning to `C=CCOC(=O)N1c2ccc(O[Si](C)(C)C(C)(C)C)cc2[C@@]23O[C@@]24[C@@H]1C#C/C=C\C#C[C@]3(O)C(OC)(OC)C[C@@H]4C`, the TGI in the experiment on SF-539 CNS is over 100 µM; in the experiment with DU-145 prostate it was over 100 µM; with MCF7 breast, over 92.4 µM; in the experiment with SK-MEL-2 melanoma it was over 100 µM; in the experiment with LOX IMVI melanoma, over 100 µM; in the experiment on HCC-2998 colon it was over 100 µM. In addition, the TGI in the experiment with PC-3 prostate, in the experiment on OVCAR-8 ovarian, in the experiment with OVCAR-4 ovarian and in the experiment with OVCAR-5 ovarian was over 100 µM throughout.

Turning to `C=CCSC1=N/C(=C\c2ccc(Cl)cc2)C(=O)N1CC=C`, the TGI was over 100 µM with SF-539 CNS; over 100 µM with DU-145 prostate; 46.2 µM in the experiment with MCF7 breast; 76 µM in the experiment with SK-MEL-2 melanoma; over 100 µM with LOX IMVI melanoma; over 100 µM with HCC-2998 colon. Also, the TGI with PC-3 prostate was 54.2 µM; in the experiment with OVCAR-8 ovarian, over 100 µM; in the experiment on OVCAR-4 ovarian, 94.7 µM; in the experiment on OVCAR-5 ovarian it was over 100 µM.

Consider `CN(C)CCNc1ccc2c(=O)n(CCN(C)C)c(=O)n3c4ccc(O)cc4c(=O)c1c23`, for which the TGI with SF-539 CNS is under 0.0389 µM; with DU-145 prostate, 0.0781 µM; with MCF7 breast, 0.634 µM; with SK-MEL-2 melanoma, 0.602 µM; with LOX IMVI melanoma, 0.217 µM; in the experiment on HCC-2998 colon it was 0.186 µM. Also, the TGI in the experiment with PC-3 prostate worked out at 4.52 µM; in the experiment with OVCAR-8 ovarian, 0.358 µM; in the experiment with OVCAR-4 ovarian it was 0.38 µM; with OVCAR-5 ovarian it was 2.34 µM.
